{"source": "paper PMC2935846", "about": "(Journal of the American Chemical Society, 2009)", "key": {"[1]": {"tested_on": "E. coli cytoplasmic membrane", "assay": "Membrane depolarization, diSC3", "type": "cell-based, Escherichia coli", "conditions": "E. coli 2 × 10^7 cells/mL, 50 nM diSC3(5)"}, "C. neoformans cells": {"tested_on": "C. neoformans cells", "assay": "SYTOX Green uptake", "type": "cell-based, Cryptococcus neoformans", "conditions": "5 μM peptide, 2 × 10^7 cells/mL in PBS, 1 μM SYTOX Green"}, "[2]": {"assay": "Leakage of terbium from lipid vesicles", "conditions": "peptide:lipid 1:100, method as in earlier work"}, "E. coli cells": {"tested_on": "E. coli cells", "assay": "SYTOX Green uptake", "conditions": "5 μM peptide; for SYTOX Green influx into E. coli (in words): E. coli cells in PBS"}}, "data": [{"smiles": "CC(C)[C@@H]1NC(=O)[C@H](C)OC(=O)[C@@H](C(C)C)NC(=O)[C@@H](C(C)C)OC(=O)[C@H](C(C)C)NC(=O)[C@H](C)OC(=O)[C@@H](C(C)C)NC(=O)[C@@H](C(C)C)OC(=O)[C@H](C(C)C)NC(=O)[C@H](C)OC(=O)[C@@H](C(C)C)NC(=O)[C@@H](C(C)C)OC1=O", "note": "[valinomycin]", "values": [{"measurement": "collapse of the membrane potential (in words)", "setting": "[1]; 40 μM", "value": "Complete collapse of the membrane potential"}]}, {"smiles": "CC[C@H](C)[C@H](NC(=O)CN)C(=O)NCC(=O)N[C@@H](C)C(=O)N[C@H](C(=O)N[C@@H](CC(C)C)C(=O)N[C@@H](CCCCN)C(=O)N[C@H](C(=O)N[C@@H](CC(C)C)C(=O)N[C@H](C(=O)N[C@H](C(=O)NCC(=O)N[C@@H](CC(C)C)C(=O)N1CCC[C@H]1C(=O)N[C@@H](C)C(=O)N[C@@H](CC(C)C)C(=O)N[C@H](C(=O)N[C@@H](CO)C(=O)N[C@@H](Cc1c[nH]c2ccccc12)C(=O)N[C@H](C(=O)N[C@@H](CCCCN)C(=O)N[C@@H](CCCNC(=N)N)C(=O)N[C@@H](CCCCN)C(=O)N[C@@H](CCCNC(=N)N)C(=O)N[C@@H](CCC(N)=O)C(=O)N[C@@H](CCC(N)=O)C(N)=O)[C@@H](C)CC)[C@@H](C)CC)[C@@H](C)O)[C@@H](C)O)C(C)C)C(C)C", "note": "[Melittin]", "values": [{"measurement": "permeabilization of fungal cells, SYTOX Green (in words)", "setting": "C. neoformans cells", "value": "completely permeabilizes the fungal cells in just a few minutes"}, {"measurement": "time of membrane potential dissipation", "setting": "[1]; 5 μM peptide, 25°C", "value": "less than 30 seconds"}, {"measurement": "% of Tb leakage, P:L 1:100", "setting": "[2]", "value": 100, "unit": "%"}, {"measurement": "time to 50% of the maximum SYTOX Green uptake", "setting": "E. coli cells; E. coli in PBS", "value": "about 15 minutes"}, {"measurement": "time to complete SYTOX Green leakage", "setting": "E. coli cells; E. coli in PBS", "value": "≤ 25", "unit": "min"}]}, {"smiles": "CC1(C)S[C@@H]2[C@H](NC(=O)[C@H](N)c3ccccc3)C(=O)N2[C@H]1C(=O)O", "note": "[ampicillin]", "values": [{"measurement": "SYTOX Green influx into E. coli (in words)", "setting": "E. coli cells", "value": "no effect"}]}, {"smiles": "CC[C@H](C)[C@H](N)C(=O)N[C@@H](CC(C)C)C(=O)N1CCC[C@H]1C(=O)N[C@@H](Cc1c[nH]c2ccccc12)C(=O)N[C@@H](CCCCN)C(=O)N[C@@H](Cc1c[nH]c2ccccc12)C(=O)N1CCC[C@H]1C(=O)N[C@@H](Cc1c[nH]c2ccccc12)C(=O)N[C@@H](Cc1c[nH]c2ccccc12)C(=O)N1CCC[C@H]1C(=O)N[C@@H](Cc1c[nH]c2ccccc12)C(=O)N[C@@H](CCCNC(=N)N)C(=O)N[C@@H](CCCNC(=N)N)C(N)=O", "note": "[Indolicidin]", "values": [{"measurement": "% of Tb leakage, P:L 1:100", "setting": "[2]", "value": 8, "unit": "%"}, {"measurement": "SYTOX Green influx into E. coli (in words)", "setting": "E. coli cells", "value": "only a very small amount of dye influx"}]}]}
